# Measured values as given in publication PMC6820730, “Leu^8 and Pro^8 oxytocin agonism differs across human, macaque, and marmoset vasopressin 1a receptors” (Scientific Reports, 2019).
# Values joined by “and” are separate entries in the source; they are usually repeats but may differ in a detail not shown here. Equal entries are not always repeated. Starred links: 1 amine or outer side, 2 acyl side, 3 side chain; linkers in the order of their positions; H or OH if unused. Positions of bridges follow the written chain, without caps; N, C: chain ends. Non-standard residues stand in square brackets, D forms with d. Residues, ends and D or L forms follow the SMILES beside them. Tyr(3-I) = N[C@@H](Cc1ccc(O)c(I)c1)C(=O)O; X1 = O=C(CC1(S[*:2])CCCCC1)[*:1]; Orn = NCCC[C@H](N)C(=O)O
# Tests used:
# untransfected CHO cells = test: Ca2+ response in untransfected CHO cells; type: cell-based, Chinese hamster
# macaque AVPR1a [1] = test: Ca2+ mobilization assay, CHO cells expressing macaque AVPR1a; type: cell-based
# Description: (§1) Ca^2+ mobilization assays
# (§2) . […] . Binding affinities for ^125I-OVTA at each primate AVPR1a were calculated by subtracting nonspecific binding and then plotting bound ^125I-OVTA vs. free ^125I-OVTA. Because concentrations of ^125I-OVTA were not identical from experiment to experiment, technical replicates within each experiment (n = 3) were normalized and then corrected using the Cheng-Prusoff equation. […] Differences in Ca^2+ mobilization potency (EC50) and maximal response to OXT were determined by normalizing OXT-induced (Log M) Ca^2+ responses as a percentage of maximal (100%) AVP-induced Ca^2+ response. We averaged across technical replicates (n = 3) within each biological replicate and then averaged across the biological replicates (n = 3), normalized the data, and tested for significant differences of best-fit LogEC50 using one-way ANOVA analyses. […] .
# marmoset AVPR1a [2] = test: Intact cell 125I-OVTA competition binding, CHO cells expressing marmoset AVPR1a; conditions: competition with 125I-OVTA in intact CHO cells, 3 h on ice, ± Std. Error, n = 5
# Description: (§3) Intact cell competition binding assays
# (§4) Cells were washed four times with 100 µL ice-cold HGH-BSA, solubilized with 100 µL 0.2 N NaOH, and radioactivity was quantified with a gamma counter. Half-maximal inhibitory concentrations (IC50) were determined by plotting bound ^125I-OVTA vs. competitor concentration. IC50 values were then corrected using the Cheng-Prusoff equation with each receptor’s KD for ^125I-OVTA to produce Ki values for the competing ligands.
# (§5) Binding affinities for ^125I-OVTA at each primate AVPR1a were calculated by subtracting nonspecific binding and then plotting bound ^125I-OVTA vs. free ^125I-OVTA. Because concentrations of ^125I-OVTA were not identical from experiment to experiment, technical replicates within each experiment (n = 3) were normalized and then corrected using the Cheng-Prusoff equation. […] Differences in Ca^2+ mobilization potency (EC50) and maximal response to OXT were determined by normalizing OXT-induced (Log M) Ca^2+ responses as a percentage of maximal (100%) AVP-induced Ca^2+ response. […] All best-fit data (Ki, EC50, and Ca^2+ maximal responses) were analyzed using the nonlinear least squares curve-fitting capabilities of GraphPad Prism.
# macaque AVPR1a [3] = test: Intact cell 125I-OVTA competition binding, CHO cells expressing macaque AVPR1a; conditions: competition with 125I-OVTA in intact CHO cells, 3 h on ice, ± Std. Error, n = 3
# Description: as §3, §4, §5
# marmoset AVPR1a [4] = test: Ca2+ mobilization assay, CHO cells expressing marmoset AVPR1a; type: cell-based
# Description: as §1, §2
# human AVPR1a [5] = target: T1, human AVPR1a (Homo sapiens, UniProt P37288); test: Ca2+ mobilization assay, CHO cells expressing human AVPR1a; type: cell-based; conditions: human AVPR1a in CHO cells; ± Std. Error, n = 6; read-out: Ca^2+ EC50
# T1 sequence (P37288 whole entry): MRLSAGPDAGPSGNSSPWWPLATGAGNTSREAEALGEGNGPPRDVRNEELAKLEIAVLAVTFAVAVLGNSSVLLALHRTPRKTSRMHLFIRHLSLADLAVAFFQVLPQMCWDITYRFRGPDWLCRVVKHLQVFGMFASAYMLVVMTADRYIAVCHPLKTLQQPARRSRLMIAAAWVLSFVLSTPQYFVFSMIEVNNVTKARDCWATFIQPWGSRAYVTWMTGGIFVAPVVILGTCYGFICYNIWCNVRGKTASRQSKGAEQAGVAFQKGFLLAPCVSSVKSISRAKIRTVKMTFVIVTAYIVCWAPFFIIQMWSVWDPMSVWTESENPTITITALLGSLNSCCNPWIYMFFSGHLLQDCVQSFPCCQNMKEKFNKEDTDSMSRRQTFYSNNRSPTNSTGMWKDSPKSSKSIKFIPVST
# marmoset AVPR1a [6] = test: Intact cell saturation binding of 125I-OVTA, marmoset AVPR1a CHO clone; conditions: intact CHO cells, 3 h on ice
# Description: (§6) Intact cell saturation binding assays […] Cells were washed four times with 100 μL ice-cold HGH-BSA, solubilized with 100 μL 0.2 N NaOH, and radioactivity quantified with a gamma counter. We also counted aliquots of the used binding medium (i.e., free ^125I-OVTA) to quantify free radioligand CPM directly, eliminating any concerns about differential depletion of ligand due to differential receptor expression levels across species or time. […] Binding affinity for ^125I-OVTA was determined after correcting for non-specific binding by plotting specific bound/free vs. bound using a single-site binding equation (Graphpad Software Inc., La Jolla, CA). […] Binding affinities for ^125I-OVTA at each primate AVPR1a were calculated by subtracting nonspecific binding and then plotting bound ^125I-OVTA vs. free ^125I-OVTA. Because concentrations of ^125I-OVTA were not identical from experiment to experiment, technical replicates within each experiment (n = 3) were normalized and then corrected using the Cheng-Prusoff equation. […] We averaged across technical replicates (n = 3) within each biological replicate and then averaged across the biological replicates (n = 3), normalized the data, and tested for significant differences of best-fit LogEC50 using one-way ANOVA analyses.
# macaque AVPR1a [7] = test: Intact cell saturation binding of 125I-OVTA, macaque AVPR1a CHO clone; conditions: intact CHO cells, 3 h on ice
# Description: as §6
# human AVPR1a [8] = target: T1, human AVPR1a; test: Intact cell saturation binding of 125I-OVTA, human AVPR1a CHO clone
# Description: as §6
# [9] = target: human, marmoset, and macaque AVPR1a; test: Saturation binding of 125I-OVTA, summary over the three primate AVPR1a; conditions: range over the three species
# Description: Intact cell saturation binding assays […] Cells were washed four times with 100 µL ice-cold HGH-BSA, solubilized with 100 µL 0.2 N NaOH, and radioactivity quantified with a gamma counter. We also counted aliquots of the used binding medium (i.e., free ^125I-OVTA) to quantify free radioligand CPM directly, eliminating any concerns about differential depletion of ligand due to differential receptor expression levels across species or time. […] Binding affinity for ^125I-OVTA was determined after correcting for non-specific binding by plotting specific bound/free vs. bound using a single-site binding equation (Graphpad Software Inc., La Jolla, CA).
# [10] = target: human, macaque, and marmoset OXTR; parameters: method as in Taylor et al., 2018; conditions: range over the three species; ref Taylor et al., 2018; read-out: Affinity (Kd) of 125I-OVTA at human, macaque, and marmoset OXTR; cited from earlier work
compound,measurement,setting,value
"N=C(N)NCCC[C@H](NC(=O)[C@@H]1CCCN1C(=O)[C@@H]1CSSC[C@H](N)C(=O)N[C@@H](Cc2ccc(O)cc2)C(=O)N[C@@H](Cc2ccccc2)C(=O)N[C@@H](CCC(N)=O)C(=O)N[C@@H](CC(N)=O)C(=O)N1)C(=O)NCC(N)=O [AVP, arginine vasopressin]",Ca^2+ response,untransfected CHO cells; AVP 100 mM to 0.1 nM (so in the source),no Ca^2+ response
same,EC50,"macaque AVPR1a [1]; macaque AVPR1a in CHO cells, ± Std. Error, n = 3, read-out: Ca^2+ EC50",0.3 nM and 0.31 nM
same,"Maximal Ca^2+ response, comparison among ligands","macaque AVPR1a [1]; macaque AVPR1a, F(2,6) = 0.23, p = 0.80",equal maximal Ca^2+ responses
same,Ki,marmoset AVPR1a [2],0.9 nM and 0.86 nM
same,Ki,macaque AVPR1a [3],1.2 nM and 1.21 nM
same,"Ca^2+ response of AVP alone, % of the maximal Ca^2+ response","marmoset AVPR1a [4]; 10 nM AVP alone, marmoset AVPR1a",approximately 80%
same,EC50,"marmoset AVPR1a [4]; marmoset AVPR1a in CHO cells, ± Std. Error, n = 3, read-out: Ca^2+ EC50",0.05 ± 0.05 nM
CC[C@H](C)[C@@H]1NC(=O)[C@H](Cc2ccc(O)cc2)NC(=O)[C@@H](N)CSSC[C@@H](C(=O)N2CCC[C@H]2C(=O)N2CCC[C@H]2C(=O)NCC(N)=O)NC(=O)[C@H](CC(N)=O)NC(=O)[C@H](CCC(N)=O)NC1=O [Pro^8-OXT] (H-CYIQNCPPG-NH2; disulfide 1-6),EC50,human AVPR1a [5],36.2 ± 0.25 nM
"CC[C@H](C)[C@@H]1NC(=O)[C@H](Cc2ccc(OC)cc2)NC(=O)CC2(CCCCC2)SSC[C@@H](C(=O)N2CCC[C@H]2C(=O)N[C@@H](CCCN)C(=O)N[C@@H](Cc2ccc(O)c(I)c2)C(N)=O)NC(=O)[C@H](CC(N)=O)NC(=O)[C@H]([C@@H](C)O)NC1=O [^125I-OVTA, ^125I-ornithine vasotocin analog] (Y(Me)ITNCP[Orn][Tyr(3-I)]-NH2; linker N-5 via X1; C-terminus assumed)",Kd,marmoset AVPR1a [6],0.944 nM
same,Kd,macaque AVPR1a [7],0.331 nM
same,Bmax,"human AVPR1a [8]; human AVPR1a CHO clone, maximal binding of 125I-OVTA",6.21 fmol/well
same,Kd,"human AVPR1a [8]; human AVPR1a, saturation binding, intact CHO cells, 3 h on ice",1.17 nM
same,Kd,[9],0.331 to 1.17 nM
same,Kd,[10],0.161 to 0.481 nM
Lysophosphatidic acid [Lysophosphatidic acid (LPA)],Ca^2+ response,untransfected CHO cells; 10 mM (so in the source),do show a Ca^2+ response
